Experimental data as given in patent US6627581B1, “Cyclopropyl-anellated 3-(4,5-dihydroisoxazol-3-yl)-substituted benzoylpyrazoles” (BASF Aktiengesellschaft, priority 1999, dated 2003).

How the values were obtained:
Amaranthus retroflexus = test: greenhouse post-emergence herbicidal test; format: in vivo; details: Amaranthus retroflexus (pig weed), application rates of 0.25 or 0.125 kg/ha, 2 to 4 weeks
Excerpt: (§1) The cultivation containers used were plastic pots containing loamy sand with approximately 3.0% of humus as the substrate. The seeds of the test plants were sown separately for each species.
(§2) For the post-emergence treatment, the test plants were first grown to a height of from 3 to 15 cm, depending on the plant habit, and only then treated with the active compounds which had been suspended or emulsified in water. The test plants were for this purpose either sown directly and grown in the same containers, or they were first grown separately as seedlings and transplanted into the test containers a few days prior to treatment. The application rate for the post-emergence treatment was 0.25 or 0.125 kg of a.s. (active substance)/ha.
(§3) Depending on the species, the plants were kept at 10-25° C. or 20-35° C. The test period extended over from 2 to 4 weeks. During this time, the plants were tended, and their response to the individual treatments was evaluated.
(§4) The evaluation was carried out using a scale from 0 to 100. 100 means no emergence of the plants, or complete destruction of at least the aerial parts and 0 means no damage, or normal course of growth.
(§5) The plants used in the greenhouse experiments were of the following species: […]

Avena fatua = test: greenhouse post-emergence herbicidal test; format: in vivo; details: Avena fatua (wild oat), application rates of 0.25 or 0.125 kg/ha, 2 to 4 weeks
Excerpt: as §1, §2, §3, §4, §5

Chenopodium album = test: greenhouse post-emergence herbicidal test; format: in vivo; details: Chenopodium album (lambsquaters), application rates of 0.25 or 0.125 kg/ha, 2 to 4 weeks
Excerpt: as §1, §2, §3, §4, §5

Echinochloa crus galli = test: greenhouse post-emergence herbicidal test; format: in vivo; details: Echinochloa crus galli (barnyardgrass), application rates of 0.25 or 0.125 kg/ha, 2 to 4 weeks
Excerpt: as §1, §2, §3, §4, §5

Polygonum persicaria = test: greenhouse post-emergence herbicidal test; format: in vivo; details: Polygonum persicaria (ladysthumb), application rates of 0.25 or 0.125 kg/ha, 2 to 4 weeks
Excerpt: as §1, §2, §3, §4, §5

Setaria faberi = test: greenhouse post-emergence herbicidal test; format: in vivo; details: Setaria faberi (giant foxtail), application rates of 0.25 or 0.125 kg/ha, 2 to 4 weeks
Excerpt: as §1, §2, §3, §4, §5

| Compound | melting point [°C] | further results |
| --- | --- | --- |
| Cc1c(C(=O)c2cnn(C(C)(C)C)c2O)ccc(S(C)(=O)=O)c1C1=NOC2CC12C (centres unmarked) [Compound 2.16] | 110 to 115 | – |
| Cc1c(C(=O)c2cnn(C)c2O)ccc(S(C)(=O)=O)c1C1=NOC2CC12C (centres unmarked) [Compound 2.13] | 99 to 103 | – |
| Cc1c(C(=O)c2cnn(C(C)(C)C)c2O)ccc(S(C)(=O)=O)c1C1=NOC2CC12 (centres unmarked) [Compound 2.1, 4-[2-Methyl-3-(2-oxa-3-aza-bicyclo[3.1.0]hex-3-en-4-yl)-4-methylsulfonylbenzoyl]-5-hydroxy-1-tert-butyl-1H-pyrazole] | 69 to 74 | – |
| Cc1c(C(=O)c2cnn(C(C)C)c2O)ccc(S(C)(=O)=O)c1C1=NOC2CC12C (centres unmarked) [Compound 2.14] | 75 to 80 | – |
| Cc1nn(C)c(O)c1C(=O)c1ccc(S(C)(=O)=O)c(C2=NOC3CC23)c1C (centres unmarked) [Compound 2.5] | 89 to 91 | post-emergence action (Amaranthus retroflexus): very good; post-emergence action (Avena fatua): very good; post-emergence action (Chenopodium album): very good; post-emergence action (Echinochloa crus galli): very good; post-emergence action (Polygonum persicaria): very good; post-emergence action (Setaria faberi): very good |
| Cc1c(C(=O)c2cnn(C(C)(C)C)c2O)ccc(S(C)(=O)=O)c1C1=NOC2(C)CC12 (centres unmarked) [Compound 2.10] | 90 to 95 | – |
| Cc1c(C(=O)c2cnn(C)c2O)ccc(S(C)(=O)=O)c1C1=NOC2CC12 (centres unmarked) [Compound 2.3, 4-[2-Methyl-3-(2-oxa-3-azabicyclo[3.1.0]hex-3-en-4-yl)-4-methyl-sulfonylbenzoyl]-5-hydroxy-1-methyl-1H-pyrazole] | 106 to 112 | – |
| Cc1c(C(=O)c2cnn(C(C)C)c2O)ccc(S(C)(=O)=O)c1C1=NOC2(C)CC12 (centres unmarked) [Compound 2.11] | 67 to 70 | – |
| Cc1c(C(=O)c2cnn(C)c2O)ccc(S(C)(=O)=O)c1C1=NOC2(C)CC12 (centres unmarked) [Compound 2.7] | 98 to 102 | – |
| CCn1ncc(C(=O)c2ccc(S(C)(=O)=O)c(C3=NOC4CC34)c2C)c1O (centres unmarked) [Compound 2.2] | 94 to 97 | – |
| Cc1c(C(=O)c2cnn(C(C)C)c2O)ccc(S(C)(=O)=O)c1C1=NOC2CC12 (centres unmarked) [Compound 2.4] | 90 to 95 | – |
